Laboratory results published in the supplement of paper PMC5303821, “Major sulfonate transporter Soa1 in Saccharomyces cerevisiae and considerable substrate diversity in its fungal family” (Nature Communications, 2017).

Assays:
Conditions in all cases: sulfur source concentration 200 µM; S. cerevisiae S288C/BY sul1Δ sul2Δ soa1Δ with transporter ortholog inserted at SOA1 locus; sulfur-free B medium, 4% glucose, pH 6.5, sole sulfur source
[1] = system: Metarhizium robertsii_XP_007822519; test: lag phase before growth; higher = slower start of growth
[2] = system: Saccharomyces uvarum_SOA2; test: as above
[3] = system: Saccharomyces uvarum_SOA1; test: as above
[4] = system: Saccharomyces eubayanus_SOA1; test: as above
[5] = system: Saccharomyces cerevisiae_SOA1; test: as above
[6] = system: Ogataea parapolymorpha_XP_013935289; test: as above
[7] = system: Metarhizium robertsii_XP_007822519; test: maximal growth rate with compound as sole sulfur source (OD600 per h); higher = better growth / uptake of the sulfur source
[8] = system: Aspergillus nidulans (IAM 2006)_astA; test: as above
[9] = system: Aspergillus nidulans_XP_681611; test: as above
soa1 del [10] = test: as above
[11] = system: Ogataea parapolymorpha_XP_013936897; test: as above
[12] = system: Ogataea parapolymorpha_XP_013932458; test: as above
[13] = system: Aspergillus nidulans_XP_661711; test: as above
[14] = system: Fusarium oxysporum_ENH65823; test: as above
[15] = system: Aspergillus nidulans_XP_660670; test: as above
[16] = system: Metarhizium robertsii_XP_007821441; test: as above
[17] = system: Metarhizium robertsii_XP_007822519; test: maximal culture density with compound as sole sulfur source (OD600); higher = better growth
[18] = system: Aspergillus nidulans (IAM 2006)_astA; test: as above
[19] = system: Aspergillus nidulans_XP_681611; test: as above
[20] = system: Saccharomyces uvarum_SOA2; test: as above
soa1 del [21] = test: as above
[22] = system: Ogataea parapolymorpha_XP_013936897; test: as above
[23] = system: Saccharomyces uvarum_SOA1; test: as above
[24] = system: Aspergillus nidulans_XP_661733; test: as above
[25] = system: Saccharomyces eubayanus_SOA1; test: as above
[26] = system: Ogataea parapolymorpha_XP_013932458; test: as above
[27] = system: Aspergillus nidulans_XP_660563; test: as above
[28] = system: Metarhizium robertsii_XP_007823832; test: as above
[29] = system: Aspergillus nidulans_XP_661711; test: as above
[30] = system: Aspergillus nidulans_CBF80346; test: as above
[31] = system: Saccharomyces cerevisiae_SOA1; test: as above
[32] = system: Aspergillus nidulans_CBF74694; test: as above
[33] = system: Ogataea parapolymorpha_XP_013935289; test: as above
[34] = system: Fusarium oxysporum_ENH65823; test: as above
[35] = system: Saccharomyces eubayanus_SOA2; test: as above
[36] = system: Aspergillus nidulans_XP_660670; test: as above
[37] = system: Metarhizium robertsii_XP_007821441; test: as above

Row | SMILES | lag phase before growth [1] | lag phase before growth [2] | lag phase before growth [3] | lag phase before growth [4] | lag phase before growth [5] | lag phase before growth [6] | maximal growth rate [7] | maximal growth rate [8] | maximal growth rate [9] | maximal growth rate (soa1 del [10]) | maximal growth rate [11] | maximal growth rate [12] | maximal growth rate [13] | maximal growth rate [14] | maximal growth rate [15] | maximal growth rate [16] | maximal culture density [17] | maximal culture density [18] | maximal culture density [19] | maximal culture density [20] | maximal culture density (soa1 del [21]) | maximal culture density [22] | maximal culture density [23] | maximal culture density [24] | maximal culture density [25] | maximal culture density [26] | maximal culture density [27] | maximal culture density [28] | maximal culture density [29] | maximal culture density [30] | maximal culture density [31] | maximal culture density [32] | maximal culture density [33] | maximal culture density [34] | maximal culture density [35] | maximal culture density [36] | maximal culture density [37]
1 | O=S(=O)(O)CO [Hydroxymethane sulfonate] | 7.86 h | 11.1 h | 6.88 h | 7.32 h | 6.75 h | 6.08 h | 0.0756 | 0.0343 | 0.00603 | 0.00406 | 0.00499 | 0.00402 | 0.00357 | 0.00319 | 0.00358 | 0.0032 | 1.59 | 1.6 | 0.322 | 1.73 | 0.212 | 0.303 | 1.6 | 0.267 | 1.59 | 0.234 | 0.318 | 1.5 | 0.207 | 0.208 | 1.61 | 0.203 | 1.62 | 0.195 | 1.66 | 0.207 | 1.04
2 | CSCC[C@H](N)C(=O)O [Methionine] | 4.74 h | 4.3 h | 3.45 h | 3.83 h | 5.45 h | 4.02 h | 0.139 | 0.143 | 0.142 | 0.141 | 0.123 | 0.131 | 0.139 | 0.144 | 0.139 | 0.137 | 1.59 | 1.59 | 1.64 | 1.68 | 1.69 | 1.57 | 1.57 | 1.59 | 1.55 | 1.56 | 1.6 | 1.58 | 1.6 | 1.58 | 1.61 | 1.57 | 1.55 | 1.59 | 1.63 | 1.6 | 1.59
3 | CCCS(=O)(=O)O [Propanesulfonate] | 21.1 h | 19 h | 11.1 h | 11.9 h | 15.7 h | 10.8 h | 0.0162 | 0.0176 | 0.00692 | 0.00415 | 0.00486 | 0.0042 | 0.00399 | 0.00365 | 0.00401 | 0.0026 | 1.88 | 0.486 | 0.35 | 1.69 | 0.212 | 0.296 | 1.56 | 0.249 | 1.56 | 0.243 | 0.327 | 0.507 | 0.232 | 0.212 | 1.6 | 0.192 | 1.59 | 0.232 | 1.7 | 0.231 | 0.263
4 | O=S(O)O [sulfite] | 0.981 h | 11 h | 5.95 h | 6.97 h | 6.67 h | 5.63 h | 0.0114 | 0.104 | 0.00588 | 0.00378 | 0.00463 | 0.0051 | 0.004 | 0.00381 | 0.00402 | 0.00339 | 1 | 1.6 | 0.308 | 1.44 | 0.222 | 0.284 | 1.61 | 0.274 | 1.58 | 0.285 | 0.322 | 1.56 | 0.244 | 0.262 | 1.6 | 0.196 | 1.61 | 0.256 | 0.645 | 0.243 | 0.235
